Read-outs that look alike come from different tables or passages of the source.
Experiments:
[1] = molecular target: human GABAA α1β3γ2 receptor (Homo sapiens (Human), UniProt P14867+P18507); experiment: Radioligand binding assay, competition for [3H]Flumazenil, γ2-containing GABAA subtype α1β3γ2
Description: The affinity of compounds at GABAA γ2 subunit-containing receptors was measured by competition for [^3H]Flumazenil (81.1 Ci/mmol; Roche) binding to HEK293F cells expressing human (transiently transfected) receptors of composition α1β3γ2.
Harvested pellets from HEK293F cells expressing the different GABAA γ2 receptor subtypes were resuspended in Mannitol Buffer pH 7.2-7.4 and processed as described above for the cells expressing the GABAA γ1 subunit-containing receptors.
Assays were incubated to equilibrium for 1 hour at 4° C. and harvested onto GF/C uni-filters (Packard) by filtration using a Packard harvester and washing with ice-cold wash buffer (50 mM Tris; pH 7.5). After anhydrousing, filter-retained radioactivity was detected by liquid scintillation counting. Ki values were calculated using Excel-Fit (Microsoft) and are the means of two determinations.

[2] = molecular target: human GABAA α2β2γ1 receptor (Homo sapiens (Human), UniProt P47869+Q8N1C3); experiment: Radioligand binding assay, competition for [3H]RO7239181, γ1-containing GABAA subtype α2β2γ1; conditions: for γ2/γ1 Selectivity Ratio: Ki α1β3γ2 (nM)/Ki α2β2γ1 (nM); for LogSel: Log[Ki α1β3γ2 (nM)/Ki α2β2γ1 (nM)]
Description: (§1) The affinity of compounds at GABAA γ1 subunit-containing receptors was measured by competition for [^3H]RO7239181 (67.3 Ci/mmol; Roche) binding to membranes from HEK293F cells (ThermoFisher R^79007) expressing human (transiently transfected) receptors of composition α5β2γ1, α2β2γ1, α1β2γ1.
(§2) Harvested pellets from HEK293F cells expressing the different GABAA receptor subtypes were resuspended in Mannitol Buffer pH 7.2-7.4 (Mannitol 0.29M, Triethylamine 10 mM, Acetic acid 10 mM, EDTA 1 mM plus protease inhibitors (20 tablets Complete, Roche Diagnostics Cat. No. 05 056 489 001 per liter)), washed two times and then resuspended at 1:10 to 1:15 dilution in the same buffer. Cell disruption was performed by stirring the suspension in a Parr vessel #4637 at 435 psi for 15 minutes, and then the suspensions were centrifuged at 1000×g for 15 minutes at 4° C. (Beckman Avanti J-HC: rotor JS-4.2). The supernatant (S1) was transferred in a 21 Schott flask and the pellet (P1) was resuspended with Mannitol Buffer up to 175 ml. The resuspended pellet was transferred into a 250 ml Corning centrifugal beaker and centrifuged at 1500×g for 10 minutes at 4° C. (Beckman Avanti J-HC: rotor JS-4.2). The supernatant (S1) was then transferred in the 21 Schott flask and the pellet was discarded. The supernatants (S1) were centrifuged in 500 ml Beckman polypropylene centrifugal beaker at 15 000×g for 30 minutes at 4° C. (Beckman Avanti J-20 XP: rotor JLA-10.500). The pellet (P2) was resuspended with Mannitol Buffer 1:1 and frozen at −80° C. The supernatant (S2) was centrifuged in 100 ml Beckman polypropylene centrifugal tubes at 48000×g for 50 minutes at 4° C. (Beckman Avanti J-20 XP: rotor JA-18). The supernatant (S3) was discarded and the pellet (P3) was resuspended with 1:1 Mannitol Buffer. The P2 and P3 protein concentration was determined with the BIORAD Standard assay method with bovine serum albumin as standard and measured on the NANO-Drop 1000. The membrane suspension was aliquots (500 μl per tube) and stored at −80° C. until required.
(§3) Membrane homogenates were resuspended and polytronised (Polytron PT1200E Kinematica AG) in Potassium Phosphate 10 mM, KCl 100 mM binding buffer at pH 7.4 to a final assay concentration determined with a previous experiment.
(§4) Assays were incubated to equilibrium for 1 hour at 4° C. and then, membranes were filtered onto unifilter (96-well white microplate with bonded GF/C filters preincubated 20-50 minutes in 0.3% Polyethylenimine) with a Filtermate 196 harvester (Packard BioScience) and washed 4 times with cold Potassium Phosphate 10 mM pH 7.4, KCl 100 mM binding buffer. After anhydrousing, filter-retained radioactivity was detected by liquid scintillation counting. Ki values were calculated using Excel-Fit (Microsoft) and are the means of two determinations.

[3] = molecular target: human GABAA α1β2γ1 receptor (Homo sapiens (Human), UniProt P14867+Q8N1C3); experiment: Radioligand binding assay, competition for [3H]RO7239181, γ1-containing GABAA subtype α1β2γ1; conditions: membranes of HEK293F cells, [3H]RO7239181 20-30 nM, mean of two determinations
Description: as §1, §2, §3, §4

[4] = HEK293F cell membranes, [3H]Flumazenil 1 nM, mean of two determinations, read-out: Ki h-GABAA α1β3γ2
[5] = Table 2, membranes of HEK293F cells, [3H]RO7239181, read-out: Ki h-GABAA α2β2γ1
[6] = membranes of HEK293F cells, [3H]RO7239181 20-30 nM, mean of two determinations, read-out: Ki h-GABAA α2β2γ1
[7] = read-out: Ki h-GABAA α2β2γ1, Table 2, membranes of HEK293F cells, [3H]RO7239181

Structure (SMILES) | Ki [1, 4] | γ2/γ1 Selectivity Ratio [2] | LogSel [2] | Ki [2, 5] | Ki [2, 6] | Ki [3] | Ki [1] | Ki [2] | Ki [2, 7]
CCOCCc1cn2c(nc1=O)[C@H](C)N=C(c1c(F)cccc1F)c1c-2ccc(Cl)c1Cl [Example 21, (5S)-8,9-dichloro-7-(2,6-difluorophenyl)-2-(2-ethoxyethyl)-5-methyl-5H-pyrimido[1,2-a][1,4]benzodiazepin-3-one] | 1440 nM | 61.6 | 1.79 | 23.3 nM | 23.3 nM | – | – | – | –
C[C@@H]1N=C(c2c(F)cccc2F)c2c(ccc(C(F)(F)F)c2Cl)-n2ccc(=O)nc21 [Example 10, (5S)-8-chloro-7-(2,6-difluorophenyl)-5-methyl-9-(trifluoromethyl)-5H-pyrimido[1,2-a][1,4]benzodiazepin-3-one] | – | 112.1 | 2.05 | – | – | 159 nM | 6120 nM | 54.6 nM | 54.6 nM
CCOCCc1cn2c(nc1=O)CN=C(c1c(F)cccc1F)c1c-2ccc(C(F)(F)F)c1Cl [Example 26, 8-chloro-7-(2,6-difluorophenyl)-2-(2-ethoxyethyl)-9-(trifluoromethyl)-5H-pyrimido[1,2-a][1,4]benzodiazepin-3-one] | > 30000 nM | 400.1 | 2.60 | 75 nM | 75 nM | – | – | – | –
O=c1ccn2c(n1)CN=C(c1c(F)cccc1F)c1c-2ccc(Cl)c1Cl [Example 2, 8,9-dichloro-7-(2,6-difluorophenyl)-5H-pyrimido[1,2-a][1,4]benzodiazepin-3-one] | – | 47.7 | 1.68 | – | – | 8.6 nM | 462 nM | 9.7 nM | 9.7 nM
C[C@@H]1N=C(c2c(F)cccc2F)c2c(ccc(Cl)c2Cl)-n2ccc(=O)nc21 [Example 4, (5S)-8,9-dichloro-7-(2,6-difluorophenyl)-5-methyl-5H-pyrimido[1,2-a][1,4]benzodiazepin-3-one] | – | 68.7 | 1.84 | – | – | 25.6 nM | 912 nM | 13.3 nM | 13.3 nM
Cc1cn2c(nc1=O)[C@H](C)N=C(c1c(F)cccc1F)c1c-2ccc(C(F)(F)F)c1Cl [Example 9, (5S)-8-chloro-7-(2,6-difluorophenyl)-2,5-dimethyl-9-(trifluoromethyl)-5H-pyrimido[1,2-a][1,4]benzodiazepin-3-one] | – | 209.4 | 2.32 | – | – | 98.1 nM | 5950 nM | 28.4 nM | 28.4 nM
CNC(=O)c1cn2c(nc1=O)[C@H](C)N=C(c1c(F)cccc1F)c1c-2ccc(C(F)(F)F)c1Cl [Example 27, (5S)-8-chloro-7-(2,6-difluorophenyl)-N,5-dimethyl-3-oxo-9-(trifluoromethyl)-5H-pyrimido[1,2-a][1,4]benzodiazepine-2-carboxamide] | 9010 nM | 292.9 | 2.47 | 30.8 nM | 30.8 nM | 67.8 nM | – | – | –
CCOCCc1cn2c(nc1=O)[C@H](C)N=C(c1c(F)cccc1F)c1c-2ccc(C(F)(F)F)c1Cl [Example 20, (5S)-8-chloro-7-(2,6-difluorophenyl)-2-(2-ethoxyethyl)-5-methyl-9-(trifluoromethyl)-5H-pyrimido[1,2-a][1,4]benzodiazepin-3-one] | 8880 nM | 88.1 | 1.95 | 101 nM | 101 nM | – | – | – | –
O=c1ccn2c(n1)CN=C(c1ncccc1F)c1c-2ccc(Cl)c1Cl [Example 3, 8,9-dichloro-7-(3-fluoro-2-pyridyl)-5H-pyrimido[1,2-a][1,4]benzodiazepin-3-one] | – | 19.6 | 1.29 | – | – | 183 nM | 2190 nM | 112 nM | 112 nM
CCO/C=C/c1cn2c(nc1=O)[C@H](C)N=C(c1c(F)cccc1F)c1c-2ccc(Cl)c1Cl [Example 19, (5S)-8,9-dichloro-7-(2,6-difluorophenyl)-2-[(E)-2-ethoxyvinyl]-5-methyl-5H-pyrimido[1,2-a][1,4]benzodiazepin-3-one] | 1170 nM | 48.4 | 1.68 | 24.1 nM | 24.1 nM | – | – | – | –
CCO/C=C/c1cn2c(nc1=O)CN=C(c1c(F)cccc1F)c1c-2ccc(Cl)c1Cl [Example 22, 8,9-dichloro-7-(2,6-difluorophenyl)-2-[(E)-2-ethoxyvinyl]-5H-pyrimido[1,2-a][1,4]benzodiazepin-3-one] | 1130 nM | 73.8 | 1.87 | 15.3 nM | 15.3 nM | – | – | – | –
CCc1cn2c(nc1=O)[C@H](C)N=C(c1c(F)cccc1F)c1c-2ccc(C(F)(F)F)c1Cl [Example 11, (5S)-8-chloro-7-(2,6-difluorophenyl)-2-ethyl-5-methyl-9-(trifluoromethyl)-5H-pyrimido[1,2-a][1,4]benzodiazepin-3-one] | – | 151.9 | 2.18 | – | – | 167 nM | 6090 nM | 40.1 nM | 40.1 nM
CCOCCc1cn2c(nc1=O)CN=C(c1c(F)cccc1F)c1c-2ccc(Cl)c1Cl [Example 24, 8,9-dichloro-7-(2,6-difluorophenyl)-2-(2-ethoxyethyl)-5H-pyrimido[1,2-a][1,4]benzodiazepin-3-one] | 1820 nM | 60.1 | 1.78 | 30.3 nM | 30.3 nM | – | – | – | –
CCO/C=C/c1cn2c(nc1=O)CN=C(c1c(F)cccc1F)c1c-2ccc(C(F)(F)F)c1Cl [Example 25, 8-chloro-7-(2,6-difluorophenyl)-2-[(E)-2-ethoxyvinyl]-9-(trifluoromethyl)-5H-pyrimido[1,2-a][1,4]benzodiazepin-3-one] | 14700 nM | 306.4 | 2.49 | 47.9 nM | 47.9 nM | – | – | – | –
C[C@@H]1N=C(c2c(F)cccc2F)c2c(ccc(C(F)(F)F)c2Cl)-n2cc(C(=O)NC3CC3)c(=O)nc21 [Example 28, (5S)-8-chloro-N-cyclopropyl-7-(2,6-difluorophenyl)-5-methyl-3-oxo-9-(trifluoromethyl)-5H-pyrimido[1,2-a][1,4]benzodiazepine-2-carboxamide] | 11200 nM | 338.4 | 2.53 | 33 nM | 33 nM | – | – | – | –
CCO/C=C/c1cn2c(nc1=O)[C@H](C)N=C(c1c(F)cccc1F)c1c-2ccc(C(F)(F)F)c1Cl [Example 18, (5S)-8-chloro-7-(2,6-difluorophenyl)-2-[(E)-2-ethoxyvinyl]-5-methyl-9-(trifluoromethyl)-5H-pyrimido[1,2-a][1,4]benzodiazepin-3-one] | 6340 nM | 104.6 | 2.02 | 60.6 nM | 60.6 nM | – | – | – | –
